Results: patent publication US20250171404A1, “PCNA INHIBITORS AND USES THEREOF” (CITY OF HOPE, priority 2022, published 2025)

Experiments:
[1] = system: more than 70 cancer cell lines; experiment: Growth inhibition across cancer cell lines (GI50); type: cell-based; settings: read-out: median concentration to achieve 50% growth inhibition (GI50); across more than 70 cancer cell lines
[2] = system: PCNA and MCM7 on chromatin, MDA-MB-468 cells; experiment: Cell fractionation, chromatin-bound PCNA and MCM7; type: cell-based, human; settings: 5, 50, or 500 nM, 24 h
Procedure: FIGS. 7A-7E. Transcription dependent effect on DNA replication and damage. FIG. 7A: Left: Schematic of the cell fractionation procedure. Right: MDA-MB-468 cells were treated by increasing concentrations of AOH1996 (5, 50, or 500 nM) for 24 h. Cells treated with DMSO were used as control. Whole cell extract (WCE) and protein fractions associated with actively transcribed chromatin (CB:RNA+) or with low or non-transcribed chromatin (CB:RNA−) were analyzed by Western blot using antibodies against PCNA, CAF-1, and MCM7. FIG. 7B: Synchronized cancer cells were sequentially incubated in the presence of CldU (light grey) and IdU (dark grey) before and after AOH1996 treatment, respectively. […] Middle and Right: Lengths of CldU (light grey) and IdU (dark grey) incorporated DNA segments measured for more than 30 independent DNA strands from the indicated cancer cell type were averaged and graphed ±S.D. FIG. 7C: Whole cell lysates were extracted from SK-N-AS cells homozygous of the wildtype RPB1 allele or the APIM-mutant allele. Histone H2A.X and γH2A.X was analyzed by Western blot after treatment with or without AOH1996 overnight. FIG. 7D: Histone H2A.X and γH2A.X in whole cell lysates from SK-N-AS cells were analyzed by Western blot after treatment with 500 nM AOH1996 and/or 50 μM DRB overnight. […]

[3] = target: T1, PCNA interaction with RPB1 (Homo sapiens, UniProt P12004); experiment: PCNA interaction with RPB1 (immunoprecipitation, western blotting); type: cell-based; settings: SK-N-AS
T1 construct: expressed in transfected cells; host or cells: SK-N-AS (FLAG-RPB1 exogenous; PCNA endogenous)
Procedure: FIGS. 5A-5E. Modulation of PCNA interaction with RNA polymerase II. FIG. 5A: Chromatin-bound (CB) proteins were fractioned from HEK293T cells expressing FLAG-tagged PCNA after the cells were treated with or without 500 nM AOH1996. Proteins in complex with FLAG-PCNA were immune-precipitated and analyzed by mass spectrometry. Shown are numbers of proteins whose abundances were altered (grey) or unaltered (black) by more than 2-fold by AOH1996 treatment. FIG. 5B: SK-N-AS cells exogenously expressing a FLAG-tagged RPB1 gene were fractioned before and after being treated with 500 nM AOH1996 overnight. PCNA in complex with chromatin-bound (CB) FLAG-RBP1 were analyzed by western blotting. FIG. 5C: Human SK-N-AS cells were treated with UV in the presence or absence of AOH1996 (AOH) or R9-caPep (caPep). Whole cell extracts were analyzed by western blotting. FIG. 5D: Cells exogenously expressing FLAG-tagged wildtype RPB1 or FLAG-tagged APIM-mutant RPB1 gene were fractioned. PCNA in complex with chromatin-bound (CB) FLAG-RBP1 were analyzed by western blotting. FIG. 5E: HEK293T cells were transiently transfected with a FLAG-tagged wildtype RPB1 (APIM WT) gene or mutant RPB1 gene (APIM mutant). The intracellular MCM7 and RBP1 (both the hypo-phosphorylated RNAPIIa and hyper-phosphorylated RNAPIIo forms) were analyzed by western blot after cells were treated by the indicated agents and/or UV.
Modulating PCNA interaction with transcription machinery.
Cell fractionation and immunoprecipitation. Cells were fractionated as previously described (Li et al., 2018). Briefly, intact nuclei isolated following osmotic lysis were homogenized using a 21 G needle. Chromatin was pelleted by centrifugation and incubated overnight at 4° C. with benzonase in two volumes of nuclease buffer (20 mM HEPES pH 7.5, 1.5 mM MgCl2, 1 mM EDTA, 150 mM KCl, 10% glycerol, 0.5 U μl-1 benzonase). The resulting supernatant was collected as the CB fraction. Alternatively, we sequentially incubated the chromatin pellet with RNase A and benzonase and collected the supernatants after each digestion as the CB:RNA+ and CB:RNA− fractions, respectively (Li et al., 2018).

COc1cccc(Oc2ccccc2NC(=O)CNC(=O)c2cccc3ccccc23)c1 [AOH1996, N-(2-((2-(3-methoxyphenoxy)phenyl)amino)-2-oxoethyl)-1-naphthamide]
GI50 [1]: ~300 nM | association of PCNA and MCM7 with chromatin [2]: caused dissociation of PCNA and MCM7 from the actively transcribed open chromatin regions | PCNA interaction with RPB1 ([3]; chromatin-bound): enhanced interaction between PCNA and RPB1 | RPB1 levels ([3]; whole cell extracts): depleted RPB1 in cancer cells
